≈ marks a conversion by molar mass, not a printed value.
Experiments:
[1] = molecular target: L-lactate dehydrogenase B chain (Homo sapiens, UniProt P07195)
[2] = molecular target: T1, L-lactate dehydrogenase A chain (Homo sapiens, UniProt P00338); test: Binding affinity to human recombinant carboxy-terminal his-tagged LDHA (1 to 331) expressed in Escherichia coli by surface plasmon resonance analysis in presence of NADH
[3] = molecular target: T1, L-lactate dehydrogenase A chain; test: Inhibition of human recombinant carboxy-terminal his-tagged LDHA (1 to 331) expressed in Escherichia coli using pyruvate as substrate assessed as disappearance of NADH after 10 mins by fluorescence assay
Cytochrome P450 1A2 = molecular target: T2, Cytochrome P450 1A2 (Homo sapiens, UniProt P05177); test: Inhibition of CYP1A2 (unknown origin) up to 10 uM; assay type: ADME
T2 sequence (P05177 whole entry): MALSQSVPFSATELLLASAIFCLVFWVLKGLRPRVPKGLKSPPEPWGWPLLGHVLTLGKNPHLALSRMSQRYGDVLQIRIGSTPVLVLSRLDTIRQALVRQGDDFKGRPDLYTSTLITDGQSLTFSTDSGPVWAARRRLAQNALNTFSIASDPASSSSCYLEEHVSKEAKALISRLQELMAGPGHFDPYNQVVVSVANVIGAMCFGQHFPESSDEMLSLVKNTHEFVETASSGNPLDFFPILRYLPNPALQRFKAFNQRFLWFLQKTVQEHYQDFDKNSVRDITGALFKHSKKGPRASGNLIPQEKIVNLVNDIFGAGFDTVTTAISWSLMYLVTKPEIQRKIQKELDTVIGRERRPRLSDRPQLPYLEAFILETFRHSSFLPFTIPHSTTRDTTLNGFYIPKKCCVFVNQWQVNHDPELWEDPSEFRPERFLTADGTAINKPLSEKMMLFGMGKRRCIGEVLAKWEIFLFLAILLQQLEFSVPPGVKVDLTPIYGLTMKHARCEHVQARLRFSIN

Cytochrome P450 2C9 = Cytochrome P450 2C9 (Homo sapiens, UniProt P11712); test: Inhibition of CYP2C9 (unknown origin) up to 10 uM; assay type: ADME
Sequence of Cytochrome P450 2C9 (P11712 whole entry): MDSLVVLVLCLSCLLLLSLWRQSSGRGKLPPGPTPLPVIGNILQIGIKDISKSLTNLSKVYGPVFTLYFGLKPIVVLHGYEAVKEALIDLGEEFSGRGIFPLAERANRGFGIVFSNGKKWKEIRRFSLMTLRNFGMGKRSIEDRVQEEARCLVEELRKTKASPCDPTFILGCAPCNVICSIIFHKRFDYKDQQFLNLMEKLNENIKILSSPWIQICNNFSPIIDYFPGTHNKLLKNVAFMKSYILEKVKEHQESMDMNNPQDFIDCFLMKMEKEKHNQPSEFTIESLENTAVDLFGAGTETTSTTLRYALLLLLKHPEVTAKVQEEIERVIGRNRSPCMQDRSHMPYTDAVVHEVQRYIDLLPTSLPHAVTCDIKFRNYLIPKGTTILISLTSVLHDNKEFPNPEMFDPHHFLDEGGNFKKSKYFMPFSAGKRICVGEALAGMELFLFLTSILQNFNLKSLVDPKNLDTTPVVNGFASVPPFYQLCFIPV

[4] = Aqueous kinetic solubility of the compound at pH 7.4; assay type: physicochemical; settings: read-out: Kinetic_solubility
[5] = Plasma clearance in Sprague-Dawley rat at 1.5 mg/kg, po and 0.5 mg/kg, iv; assay type: ADME, organism-based
Cytochrome P450 2D6 = Cytochrome P450 2D6 (Homo sapiens, UniProt P10635); test: Inhibition of CYP2D6 (unknown origin) up to 10 uM; assay type: ADME
Sequence of Cytochrome P450 2D6 (P10635 whole entry): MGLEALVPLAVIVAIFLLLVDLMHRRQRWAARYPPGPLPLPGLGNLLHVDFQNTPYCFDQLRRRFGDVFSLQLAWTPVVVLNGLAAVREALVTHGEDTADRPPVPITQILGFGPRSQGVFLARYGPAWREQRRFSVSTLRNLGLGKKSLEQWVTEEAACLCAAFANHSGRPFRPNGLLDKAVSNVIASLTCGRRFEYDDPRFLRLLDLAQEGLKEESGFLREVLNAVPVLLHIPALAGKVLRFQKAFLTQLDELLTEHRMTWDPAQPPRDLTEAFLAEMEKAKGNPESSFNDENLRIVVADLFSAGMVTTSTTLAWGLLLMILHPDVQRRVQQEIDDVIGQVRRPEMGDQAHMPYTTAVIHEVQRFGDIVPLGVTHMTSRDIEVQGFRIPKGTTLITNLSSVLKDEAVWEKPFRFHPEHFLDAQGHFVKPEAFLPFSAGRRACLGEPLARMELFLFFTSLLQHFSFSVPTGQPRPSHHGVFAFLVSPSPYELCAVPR

[6] = Cytotoxicity against human MCF7-neo/Her2 cells assessed as cell viability at 50 uM by Sytox Green/Hoescht 33342 staining assay; assay type: cell-based
[7] = Oral bioavailability in Sprague-Dawley rat at 1.5 mg/kg; assay type: ADME, organism-based; settings: in vivo
[8] = Permeability across basolateral to apical side in MDCK cells; assay type: ADME, cell-based, Canis lupus familiaris; settings: dog, read-out: permeability
Cytochrome P450 2C19 = Cytochrome P450 2C19 (Homo sapiens, UniProt P33261); test: Inhibition of CYP2C19 (unknown origin) up to 10 uM; assay type: ADME
Sequence of Cytochrome P450 2C19 (P33261 whole entry): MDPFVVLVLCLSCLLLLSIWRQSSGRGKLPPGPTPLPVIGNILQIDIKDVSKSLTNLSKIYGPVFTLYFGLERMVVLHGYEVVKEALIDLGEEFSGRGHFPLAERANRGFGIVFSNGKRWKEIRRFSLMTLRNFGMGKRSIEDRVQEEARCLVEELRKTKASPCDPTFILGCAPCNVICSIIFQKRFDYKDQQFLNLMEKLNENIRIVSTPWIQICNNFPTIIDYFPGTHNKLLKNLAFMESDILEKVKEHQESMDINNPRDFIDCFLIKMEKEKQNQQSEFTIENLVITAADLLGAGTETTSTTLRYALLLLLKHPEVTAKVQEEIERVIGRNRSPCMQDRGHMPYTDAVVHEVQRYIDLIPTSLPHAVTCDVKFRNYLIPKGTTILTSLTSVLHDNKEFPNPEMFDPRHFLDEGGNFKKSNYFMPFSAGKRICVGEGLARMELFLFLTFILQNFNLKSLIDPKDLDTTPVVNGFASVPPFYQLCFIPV

[9] = Volume of distribution in Sprague-Dawley rat at 1.5 mg/kg, po and 0.5 mg/kg, iv; assay type: ADME, organism-based; settings: in vivo
[10] = Plasma protein binding in rat at 5 uM after 4 hrs by equilibrium dialysis method; assay type: ADME, cell-free; settings: read-out: PPB (converted)
[11] = Cmax in Sprague-Dawley rat at 0.5 mg/kg, iv; assay type: ADME, organism-based; set-up: dose 0.5 mg/kg, route intravenous; settings: in vivo
Cytochrome P450 3A4 = Cytochrome P450 3A4 (Homo sapiens, UniProt P08684); test: Inhibition of CYP3A4 (unknown origin) up to 10 uM; assay type: ADME
Sequence of Cytochrome P450 3A4 (P08684 whole entry): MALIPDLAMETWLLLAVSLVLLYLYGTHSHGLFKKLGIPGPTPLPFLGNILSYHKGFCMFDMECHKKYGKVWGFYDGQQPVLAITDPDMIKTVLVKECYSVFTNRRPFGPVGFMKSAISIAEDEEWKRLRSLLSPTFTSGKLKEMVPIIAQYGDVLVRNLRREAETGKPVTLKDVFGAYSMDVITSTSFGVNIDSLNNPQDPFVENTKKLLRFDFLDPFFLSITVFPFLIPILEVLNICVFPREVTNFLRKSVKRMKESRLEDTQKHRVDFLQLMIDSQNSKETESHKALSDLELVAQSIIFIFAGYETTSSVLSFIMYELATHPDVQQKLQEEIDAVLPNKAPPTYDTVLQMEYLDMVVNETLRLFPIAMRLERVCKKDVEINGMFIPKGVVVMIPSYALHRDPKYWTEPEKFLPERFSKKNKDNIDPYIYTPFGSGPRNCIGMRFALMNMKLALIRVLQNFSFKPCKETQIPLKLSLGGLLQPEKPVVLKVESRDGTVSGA

[12] = AUC (infinity) in Sprague-Dawley rat at 1.5 mg/kg, po; assay type: ADME, organism-based; set-up: time infinity, dose 1.5 mg/kg, route oral; settings: plasma
[13] = Permeability across apical to basolateral side in MDCK cells; assay type: ADME, cell-based, Canis lupus familiaris; settings: dog, read-out: permeability
[14] = Half life in Sprague-Dawley rat at 1.5 mg/kg, po and 0.5 mg/kg, iv; assay type: ADME, organism-based; settings: in vivo
[15] = Plasma protein binding in human at 5 uM after 4 hrs by equilibrium dialysis method; assay type: ADME, cell-free; settings: read-out: PPB
[16] = molecular target: T1, L-lactate dehydrogenase A chain; test: Binding affinity to human recombinant carboxy-terminal his-tagged LDHA (1 to 331) expressed in Escherichia coli by surface plasmon resonance analysis in absence of NADH

Sequence of L-lactate dehydrogenase B chain (P07195 whole entry): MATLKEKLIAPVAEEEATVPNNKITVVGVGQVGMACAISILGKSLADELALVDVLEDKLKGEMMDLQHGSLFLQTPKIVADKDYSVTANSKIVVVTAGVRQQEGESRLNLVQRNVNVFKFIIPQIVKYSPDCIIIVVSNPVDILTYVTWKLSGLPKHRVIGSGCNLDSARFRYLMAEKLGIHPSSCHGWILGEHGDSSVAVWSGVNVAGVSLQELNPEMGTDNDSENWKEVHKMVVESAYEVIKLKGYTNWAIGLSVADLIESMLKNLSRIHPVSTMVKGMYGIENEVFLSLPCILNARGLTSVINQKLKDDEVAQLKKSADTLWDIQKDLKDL

| IC50 [1] [µM] | Kd [2] [µM] | IC50 [3] [µM] | SMILES | further results |
| --- | --- | --- | --- | --- |
| 7 | 3 | 2 | COc1ccc(C(=O)O)cc1-c1cnc(N)c(N[C@H](C)c2ccccc2)n1 | – |
| – | – | 14 | C[C@@H](Nc1nc(-c2ccc(C(=O)O)cc2)cnc1N)c1ccccc1 | – |
| – | 29 | 15 | Cc1ccc(-c2cnc(N)c(N[C@H](C)c3ccccc3)n2)cc1C(=O)O | – |
| > 100 | > 100 | > 100 | C[C@@H](Nc1nc(-c2cccc(C(=O)O)c2)cnc1O)c1ccccc1 | – |
| – | > 100 | > 100 | CCOC(=O)c1cccc(-c2cnc(N)c(N[C@H](C)c3ccccc3)n2)c1 | – |
| – | > 100 | > 100 | C[C@@H](Nc1nc(-c2cccc(C(=O)O)c2)ccc1N)c1ccccc1 | – |
| 6 | 3 | 2 | Cc1ccc(C(=O)O)cc1-c1cnc(N)c(N[C@H](C)c2ccccc2)n1 | – |
| > 100 | > 100 | > 100 | C[C@@H](Nc1nc(-c2ccccc2C(=O)O)cnc1N)c1ccccc1 | – |
| 7 | 5 | 2 | CC(C)c1ccc(C(=O)O)cc1-c1cnc(N)c(N[C@H](C)c2ccccc2)n1 | – |
| 8 | 5 | 2 | C[C@@H](Nc1nc(-c2cc(C(=O)O)ccc2Cl)cnc1N)c1ccccc1 | – |
| – | > 100 | > 100 | C[C@H](Nc1nc(-c2cccc(C(=O)O)c2)cnc1N)c1ccccc1 | – |
| > 100 | > 100 | > 100 | C[C@@H](Nc1nc(-c2cccc(C(=O)NS(C)(=O)=O)c2)cnc1N)c1ccccc1 | – |
| > 100 | 33 | 50 | C[C@@H](Nc1nc(-c2csc(C(=O)O)c2)cnc1N)c1ccccc1 | – |
| – | > 100 | > 100 | C[C@@H](Nc1nc(-c2cccc(C(N)=O)c2)cnc1N)c1ccccc1 | – |
| – | 7 | 4 | C[C@@H](Nc1nc(-c2cccc(C(=O)O)c2)cnc1N)c1ccccc1 | inhibition (INH) (Cytochrome P450 1A2): Not Active; inhibition (INH) (Cytochrome P450 2C9): Not Active; solubility kinetic [4]: 137 µM (≈ 45.8 µg/mL); inhibition (INH) (Cytochrome P450 2D6): Not Active; Papp B→A [8]: 4 ×10⁻⁶ cm/s; inhibition (INH) (Cytochrome P450 2C19): Not Active; fraction unbound at 4 h, 5 µM [10]: 0.04; inhibition (INH) (Cytochrome P450 3A4): Not Active; Kd [16]: 857 µM; Papp A→B [13]: 9.6 ×10⁻⁶ cm/s; fraction unbound at 4 h, 5 µM [15]: 0.01 |
| – | > 100 | 35 | Cc1c(C(=O)O)cccc1-c1cnc(N)c(N[C@H](C)c2ccccc2)n1 | – |
| – | – | 10 | C[C@@H](Nc1nc(-c2ccc(C(=O)O)c(O)c2)cnc1N)c1ccccc1 | – |
| 5 | 5 | 2 | C[C@@H](Nc1nc(-c2cccc(C(=O)O)c2)cnc1N)c1ccc(Cl)cc1 | – |
| – | 32 | 24 | C[C@@H](Nc1nc(-c2ccnc(C(=O)O)c2)cnc1N)c1ccccc1 | – |
| 7 | 7 | 4 | Cc1cc(C(=O)O)cc(-c2cnc(N)c(N[C@H](C)c3ccccc3)n2)c1 | – |

Second part, the compound before the results:

| SMILES | IC50 [1] [µM] | Kd [2] [µM] | IC50 [3] [µM] | further results |
| --- | --- | --- | --- | --- |
| C[C@@H](Nc1cncc(-c2cccc(C(=O)O)c2)n1)c1ccccc1 | – | > 100 | 25 | – |
| Cc1nc(N)c(N[C@H](C)c2ccccc2)nc1-c1cccc(C(=O)O)c1 | > 100 | > 100 | 91 | – |
| C[C@H](c1ccccc1)N(C)c1nc(-c2cccc(C(=O)O)c2)cnc1N | – | > 100 | > 100 | – |
| C[C@@H](Nc1nc(-c2cccc(C(=O)O)c2)cnc1N)C1CCCCC1 | – | 7 | 3 | – |
| C[C@@H](Nc1cc(-c2cccc(C(=O)O)c2)cnc1N)c1ccccc1 | – | 29 | 18 | – |
| Nc1ncc(-c2cccc(C(=O)O)c2)nc1NCC1CCCC1 | – | 18 | 19 | – |
| Nc1ncc(-c2cccc(C(=O)O)c2)nc1NCc1ccccc1 | – | 22 | 12 | – |
| Cc1ccc(C(=O)O)cc1-c1cnc(N)c(N[C@H](C)c2ccc(Cl)cc2)n1 | – | – | 0.5 | inhibition (INH) (Cytochrome P450 1A2): Not Active; inhibition (INH) (Cytochrome P450 2C9): Not Active; solubility kinetic [4]: 81 µM (≈ 31 µg/mL); clearance [5]: 60 mL/min/kg; inhibition (INH) (Cytochrome P450 2D6): Not Active; Activity [6]: Non-toxic; bioavailability [7]: 41%; Papp B→A [8]: 10.3 ×10⁻⁶ cm/s; inhibition (INH) (Cytochrome P450 2C19): Not Active; Vd [9]: 1.4 L/kg; fraction unbound at 4 h, 5 µM [10]: 0.01; Cmax [11]: 2100 nM; inhibition (INH) (Cytochrome P450 3A4): Not Active; AUC(0-inf) [12]: 0.55 µM·h; Papp A→B [13]: 12.1 ×10⁻⁶ cm/s; half-life [14]: 168 min; fraction unbound at 4 h, 5 µM [15]: < 0.01 |
| CNc1ncc(-c2cccc(C(=O)O)c2)nc1N[C@H](C)c1ccccc1 | > 100 | > 100 | 73 | – |
| C[C@@H](Oc1nc(-c2cccc(C(=O)O)c2)cnc1N)c1ccccc1 | > 100 | > 100 | > 100 | – |
| C[C@@H](Nc1nc(-n2cc(C(=O)O)cn2)cnc1N)c1ccccc1 | 15 | – | 15 | – |
| COCCNc1nc(-c2cccc(C(=O)O)c2)cnc1N | – | > 100 | > 100 | – |
| CC(=O)Nc1ncc(-c2cccc(C(=O)O)c2)nc1N[C@H](C)c1ccccc1 | > 100 | – | > 100 | – |
| C[C@@H](Nc1nc(-c2cccc(C(=O)O)c2)cnc1NS(C)(=O)=O)c1ccccc1 | > 100 | – | 71 | – |

Reference: ChEMBL document CHEMBL2429790, “Identification of 2-amino-5-aryl-pyrazines as inhibitors of human lactate dehydrogenase” (Bioorg Med Chem Lett, 2013)
